Results taken from PMC8312697, “Mechanistic Investigations Support Liver Safety of Ubrogepant” (Toxicological Sciences, 2020).
In brackets after ≈: the same amount, converted by molar mass. Where two headings read alike, the source gives them in different places.

Columns and labels:
[1] = Compound solubility limit in transporter assay buffer; format: physicochemical; settings: read-out: upper limit of compound solubility
Description: (§1) To assess the functional impact of ubrogepant on the human ABC efflux transporters BSEP, MRP3, and MRP4, in vitro vesicular transport inhibition assays were conducted by Solvo Biotechnology (Szeged, Hungary). The ability of ubrogepant to inhibit the BSEP-mediated transport (and accumulation) of a probe substrate was tested at concentrations ranging from 0.04 – 30 μM, where the latter defined the upper limit of compound solubility in the BSEP assay buffer. For the MRP3 and MRP4 vesicle-based transporter assessments, ubrogepant concentrations of 0.1 to 70 μM were used. To assess the functional impact of ubrogepant on the human SLC (uptake) transporter NTCP, in vitro experiments were performed using HEK293 cells stably expressing NTCP. The ability of ubrogepant to inhibit NTCP-mediated uptake (and accumulation) of taurocholate was tested at concentrations ranging from 0.04 – 30 μM.
(§2) To assess the functional impact of MK-3207 on the human ABC efflux transporters BSEP, MRP3 and MRP4, in vitro vesicular transport inhibition assays were conducted by Solvo Biotechnology (Szeged, Hungary) and overseen by DSSI. BSEP transport was assessed in the presence of 0.5-30 µM MK-3207; MRP3 and MRP4 transport was assessed in the presence of 0.11-80 µM MK-3207. The upper limits of these ranges were determined by compound solubility in each assay buffer. NTCP transporter inhibition was assessed in NTCP-expressing HEK293 cells in the presence of 0.03 – 25 µM MK-3207.

human hepatocytes = test: Covalent protein binding in human hepatocytes / reactive metabolite body burden; format: in vitro ADME; settings: for Projected body burden from covalent-binding studies: covalent protein binding × dose, telcagepant 560 mg, MK-3207 80 mg, ubrogepant 200 mg; for covalent protein binding: radioactivity bound in human hepatocytes
Description: The “body burden” is a quantitative estimate of reactive metabolite exposure that was determined for each drug based on in vitro covalent protein binding of radioactivity in human hepatocytes (in pmol equivalents/mg) multiplied by a clinically effective daily dose (in mg/day). Detailed methods used in the in vitro human hepatocyte covalent-binding experiments have been reported by [Nakayama et al. (2009)].

mouse = test: Conventional nonclinical toxicology study, mouse
CYP3A4 = biological target: T1, CYP3A4 (Homo sapiens, UniProt P08684); test: HEK293/CYP3A4 assay of Nrf2 stabilization and CYP3A4 degradation; format: cell-based; settings: HEK293 cells with inducible CYP3A4, Western blot
T1 construct: expressed in transfected cells; host or cells: HEK293 Flp-In host cell line (Invitrogen/ThermoFisher Flp-In T-REx system)
T1 sequence (P08684 whole entry): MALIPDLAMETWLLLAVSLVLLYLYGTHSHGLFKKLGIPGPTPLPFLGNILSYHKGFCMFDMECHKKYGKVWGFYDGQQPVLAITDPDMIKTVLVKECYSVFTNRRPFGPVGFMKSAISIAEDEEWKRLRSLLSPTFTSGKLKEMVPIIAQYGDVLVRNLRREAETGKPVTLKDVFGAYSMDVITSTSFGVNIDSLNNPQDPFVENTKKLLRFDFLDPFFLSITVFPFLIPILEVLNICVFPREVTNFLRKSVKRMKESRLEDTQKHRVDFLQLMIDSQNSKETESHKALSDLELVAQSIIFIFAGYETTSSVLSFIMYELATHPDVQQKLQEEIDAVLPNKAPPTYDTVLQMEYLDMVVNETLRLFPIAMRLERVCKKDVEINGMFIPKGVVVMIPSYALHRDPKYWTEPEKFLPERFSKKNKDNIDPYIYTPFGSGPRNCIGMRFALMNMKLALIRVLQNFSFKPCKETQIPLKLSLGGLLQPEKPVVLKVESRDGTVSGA
Excerpt: Specifically, these assays evaluated the potential of the 3 different CGRP receptor antagonists to form reactive metabolites that promote the stabilization of Nrf2 or covalently bind to CYP3A4, triggering its subsequent time-dependent degradation, as assessed by Western blot. To seek further confirmatory evidence for reactive metabolite formation, a HEK293 cell line expressing doxycycline inducible CYP3A4 P450 enzyme expression construct with a Flag tag epitope fused to the C-terminus was constructed and cloned using the Invitrogen/ThermoFisher Scientific Flp-In T-TEx system and the HEK293 Flp-In host cell line per standard protocol. […] Alternatively, this simplified single CYP test model might not allow for Nrf2 stabilization if sufficient quantities of the chemically reactive metabolite cannot be generated by CYP3A4, or cannot escape the catalytic site of CYP3A4, which would appear on Western blot using anti-Flag antibody as time-dependent CYP3A4 degradation.

RNS/ROS production = test: DILIsym fit of ROS data (oxidative stress parameter); set-up: species or system human; settings: fit of 24-hour HepG2 ROS data
Excerpt: Parameter values for telcagepant-mediated induction of oxidative stress were identified by simulating the experimental data in DILIsym® using a DILIsym® dosing scheme meant to represent in vitro conditions.
Parameter values for ubrogepant-mediated induction of oxidative stress were identified by simulating the experimental data in DILIsym using a DILIsym drug exposure scheme designed to represent in vitro conditions.
Parameter values for MK-3207-mediated induction of oxidative stress were identified by simulating the experimental data in DILIsym using a DILIsym drug exposure scheme meant to represent in vitro conditions. Intracellular compound concentrations were also assayed in identical cell cultures; the experimental method was the same as that described above for ubrogepant.

BSEP = biological target: T2, BSEP (Homo sapiens, UniProt O95342); test: BSEP vesicular transport inhibition assay; format: biochemical; settings: for Vmax of taurocholate: BSEP vesicle assay; for alpha (mixed inhibition model): BSEP; for BSEP inhibition type: from Km and Vmax changes / model fit; for inhibition of BSEP-mediated probe substrate transport: vesicular transport inhibition assay
T2 construct: Solvo Biotechnology (Szeged, Hungary), contract laboratory that ran the assay
T2 sequence (O95342 whole entry): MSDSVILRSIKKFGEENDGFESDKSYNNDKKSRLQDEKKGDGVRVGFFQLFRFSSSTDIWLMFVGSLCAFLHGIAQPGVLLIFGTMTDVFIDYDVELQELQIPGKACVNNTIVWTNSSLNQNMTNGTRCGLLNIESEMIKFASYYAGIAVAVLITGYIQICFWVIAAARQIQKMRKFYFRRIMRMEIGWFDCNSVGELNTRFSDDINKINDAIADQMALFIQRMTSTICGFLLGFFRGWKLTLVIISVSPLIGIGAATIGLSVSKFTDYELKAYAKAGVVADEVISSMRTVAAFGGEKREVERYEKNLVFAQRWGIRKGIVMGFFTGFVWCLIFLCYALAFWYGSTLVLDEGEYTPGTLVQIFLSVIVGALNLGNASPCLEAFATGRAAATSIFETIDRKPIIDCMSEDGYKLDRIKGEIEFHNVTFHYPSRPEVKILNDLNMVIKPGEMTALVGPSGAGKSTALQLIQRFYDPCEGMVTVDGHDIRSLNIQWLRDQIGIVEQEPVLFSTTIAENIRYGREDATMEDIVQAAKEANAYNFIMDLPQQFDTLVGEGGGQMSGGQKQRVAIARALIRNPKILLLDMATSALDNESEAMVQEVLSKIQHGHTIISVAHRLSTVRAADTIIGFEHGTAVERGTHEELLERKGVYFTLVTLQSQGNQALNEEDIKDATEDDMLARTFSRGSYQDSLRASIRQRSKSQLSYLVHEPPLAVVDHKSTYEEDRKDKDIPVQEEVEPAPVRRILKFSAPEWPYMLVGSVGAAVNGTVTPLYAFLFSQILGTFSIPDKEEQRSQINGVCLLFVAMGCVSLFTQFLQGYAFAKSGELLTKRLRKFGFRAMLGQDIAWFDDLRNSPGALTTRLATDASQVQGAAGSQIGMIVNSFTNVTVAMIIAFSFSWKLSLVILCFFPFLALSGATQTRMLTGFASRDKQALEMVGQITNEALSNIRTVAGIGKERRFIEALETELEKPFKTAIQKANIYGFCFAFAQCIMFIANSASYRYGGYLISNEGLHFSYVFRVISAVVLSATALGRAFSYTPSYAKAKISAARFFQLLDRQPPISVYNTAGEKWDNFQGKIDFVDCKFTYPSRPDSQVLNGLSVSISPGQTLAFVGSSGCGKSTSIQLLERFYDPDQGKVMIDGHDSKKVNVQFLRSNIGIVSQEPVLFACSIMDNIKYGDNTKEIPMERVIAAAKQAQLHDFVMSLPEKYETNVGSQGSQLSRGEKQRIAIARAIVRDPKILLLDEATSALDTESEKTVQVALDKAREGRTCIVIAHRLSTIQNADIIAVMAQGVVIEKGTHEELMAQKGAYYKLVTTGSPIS
Description: These assays were conducted by Solvo Biotechnology and overseen by DSSI.
as §1
In the current project, additional assays were conducted to determine the Ki value and inhibition type for ubrogepant for BSEP-mediated bile acid transport. These assays were conducted by Solvo Biotechnology and overseen by DSSI. Briefly, BSEP inhibition studies were performed with multiple substrate concentrations (0.39 – 50 µM taurocholate) and multiple inhibitor concentrations (0.5 – 30 µM ubrogepant). Ki and inhibition type for ubrogepant were determined by fitting a mixed inhibition model to the untransformed data by nonlinear regression analysis. It was assumed that inhibition type for ubrogepant for other transporters (i.e., MRP3 and MRP4) was mixed with α= 5; this is a typical value for bile acid transporter inhibitors in the experience of the DSS team.
as §2
In these experiments, taurocholic acid (TCA) transport was assessed at a range of MK-3207 concentrations (0.04 – 30 µM) as well as at a range of TCA media concentrations (0.39 – 50 µM). A Ki was then determined by fitting a mixed inhibition model to the inhibition data by nonlinear regression analysis.

[2] = MRP3 and MRP4 assay buffer, aqueous buffer
[3] = mixed inhibition model, nonlinear regression

Structure (SMILES)	solubility [1, 2]	Projected body burden from covalent-binding studies (human hepatocytes)	covalent protein binding (human hepatocytes)	formation of reactive metabolites that covalently bind to CYP3A4 and result in its degradation (CYP3A4)	RNS/ROS production rate constant (RNS/ROS production)	Vmax of taurocholate (BSEP; inhibitor 0.5 µM)	Vmax of taurocholate (BSEP; inhibitor 2.5 µM)	Vmax of taurocholate (BSEP; inhibitor 5 µM)	Vmax of taurocholate (BSEP; inhibitor 15 µM)	Vmax of taurocholate (BSEP; inhibitor 30 µM)	alpha (mixed inhibition model) (BSEP; mixed inhibition model)	BSEP inhibition type (BSEP)	Ki (BSEP; [3])	inhibition of BSEP-mediated probe substrate transport (BSEP)	Pivotal conventional nonclinical toxicology study liver findings (mouse; 6M mouse)	exposure margin (mouse; 6M mouse)	also measured
C[C@@H]1[C@H](c2ccccc2)C[C@H](NC(=O)c2cnc3c(c2)C[C@@]2(C3)C(=O)Nc3ncccc32)C(=O)N1CC(F)(F)F [Ubrogepant]	70 µM (≈ 38.5 µg/mL)	4600	23 pmol equivalents/mg	did not	0.00016 mL/nmol/h	181.3 pmol/mg protein/min	175.6 pmol/mg protein/min	171.3 pmol/mg protein/min	171.9 pmol/mg protein/min	172.3 pmol/mg protein/min	8.39	likely to be a mixed BSEP inhibitor	38.1 µM	inhibited			solubility ([1]; BSEP assay buffer, aqueous buffer): 30 µM (≈ 16.5 µg/mL); Pivotal conventional nonclinical toxicology study liver findings (mouse; 3M mouse): no liver safety signal; exposure margin (mouse; 3M mouse): 80 ×
O=C(CN1C(=O)C2(CCCC2)NC[C@H]1c1cc(F)cc(F)c1)Nc1ccc2c(c1)C[C@@]1(C2)C(=O)Nc2ncccc21 [MK-3207]	80 µM (≈ 44.6 µg/mL)	14 720	184 pmol equivalents/mg	formed reactive metabolites that covalently bind to CYP3A4 and result in its degradation	0.00022 mL/nmol/h	171.9 pmol/mg protein/min	183.1 pmol/mg protein/min	174.9 pmol/mg protein/min	132.5 pmol/mg protein/min	151.7 pmol/mg protein/min		competitive model is presumed to be the most likely mode of inhibition		inhibited	no liver safety signal	12 ×	solubility ([1]; BSEP assay buffer): 30 µM (≈ 16.7 µg/mL); Ki (BSEP; competitive inhibition model): 7.62 µM
O=C(N[C@@H]1CC[C@@H](c2cccc(F)c2F)CN(CC(F)(F)F)C1=O)N1CCC(n2c(=O)[nH]c3ncccc32)CC1 [Telcagepant]		14600	26 pmol equivalents/mg	did not	20,000 mL/mol/hr		186.3 pmol/mg protein/min	208.1 pmol/mg protein/min			4.6	likely to be a mixed BSEP inhibitor	7.9 µM	inhibited	< 2× ALT/AST with no liver histopathology	14 ×	solubility ([1]; aqueous buffer, BSEP, MRP3, MRP4 vesicular transport assays): 20 µM (≈ 11.3 µg/mL); Vmax of taurocholate (BSEP; inhibitor 10 µM): 77.52 pmol/mg protein/min; Vmax of taurocholate (BSEP; inhibitor 20 µM): 119.7 pmol/mg protein/min; IC50 (BSEP; vesicular transport, taurocholate, read-out: BSEP estimated IC50): 10.2 µM; BSEP inhibition (BSEP; vesicular transport, up to 20 µM): > 50%
